Source: US8716472B2, “Tripodal cyclohexane derivatives and their use as carbohydrate receptors” (University of Rochester, priority 2006, dated 2014)
Entries after “also recorded” stand apart in the source; their conditions may differ. Blank lines part the entries; values can stand above or below the molecule they belong to.

Columns and labels:
[1] = 1H NMR reverse titration (receptor into the sugar) and Job plot; format: binding; details: CDCl3, n-octyl-β-D-glucopyranoside
Protocol: (§1) The binding affinity of Compound 12 towards a set of octylglycosides (FIG. 15) was measured using ^1H NMR titrations in CDCl3 and UV titrations in chloroform and methanol.
A reverse titration format (receptor into the sugar) was employed for estimating binding by ^1H NMR titrations in order to avoid the complications caused due to micelles formation by octylglycosides at higher concentrations (Vacca et al., J. Am. Chem. Soc. 126:16456-16465 (2004), which is hereby incorporated by reference in its entirety). […] Job plot analysis (as modified for NMR) (Fokkens et al., Chem. Eur. J. 11:477-494 (2005), which is hereby incorporated by reference in its entirety) verified a 1:1 association between Compound 12 and n-octyl-β-D-glucopyranoside (FIG. 9B).

[2] = UV-Vis titration, octanol control; format: binding; details: 298° K
Protocol: as §1
(§2) To derive quantitative binding information, UV-Vis titrations were performed. The receptor at fixed concentration was titrated with the octylglycosides in dry and deacidified chloroform or methanol (298° K). Each titration was performed in duplicate to verify results.

[3] = UV-Vis titration of n-octyl monosaccharides with receptor; format: binding; details: for Ka in chloroform / Ka in methanol: 298° K
Protocol: as §1, §2

[4] = Fluorescence titration, octanol control; format: binding; details: 298° K
Protocol: as §1
(§3) The same titration protocol employed in Example 7 was also employed in this Example (methanol at 298° K; duplicate titrations).
(§4) Fluorescence titrations of 7 with the set of octylglycosides (FIG. 15) in methanol were performed to study the effect of substitution of 4-methylquinoline instead of 4-cyanopyridine on the binding affinity and selectivity of Compound 12. […] The stoichiometry of binding between Compound 7 and n-octyl-α-D-glucopyranoside was determined by Job plot to be 1:1 (FIG. 12).

[5] = Fluorescence titration of n-octyl monosaccharides with receptor; format: binding; details: 298° K
Protocol: as §1, §3, §4

[6] = 1D 1H NMR titration of receptor with octyl pyranoside; format: binding; details: n-octyl-β-D-glucopyranoside; CDCl3, 298° K; receptor 1 mM
Protocol: The binding affinity of Compound 11 to octyl pyranosides was tested using 1D ^1H NMR titrations in dry and deacidified CDCl3 at 298° K. The Compound 11 in fixed concentration (1 mM) was titrated with increasing amount of n-octyl-β-D-glucopyranoside and the change in the amide proton resonance of Compound 11 was monitored (FIG. 5A).

[7] = n-octyl β-D-galacto pyranoside, UV-Vis

SMILES: N#Cc1ccncc1 [4-cyanopyridine, reference compound]
changes in carbohydrate hydroxyl chemical shifts on titration into the sugar [1]: no chemical shift changes were observed

SMILES: Cc1cc(C2CC(c3cc(C)c4ccccc4n3)CC(c3cc(C)c4ccccc4n3)C2)nc2ccccc12 (stereo not drawn) [Compound 7, 2,2,2″-cyclohexane-1,3,5-triyltri(4-methylquinoline)]
Ka in methanol [4]: (no binding) | Ka in methanol ([5]; n-octyl α-D-galacto pyranoside): 6,600 ± 200 M^−1 | Ka in methanol ([5]; n-octyl α-D-gluco pyranoside): 14,900±1700 M^−1 | Ka in methanol ([5]; n-octyl α-D-manno pyranoside): 2600 ± 200 M⁻¹ | Ka in methanol ([5]; n-octyl β-D-galacto pyranoside): 3,200 ± 80 M^−1 | Ka in methanol ([5]; n-octyl β-D-gluco pyranoside): 9,200 ± 600 M^−1 | Ka in methanol ([5]; n-octyl β-D-manno pyranoside): >400 M⁻¹

SMILES: c1cc(C2CC(c3ccncn3)CC(c3ccncn3)C2)ncn1 (stereo not drawn) [Compound 3, 4,4′,4″-cyclohexane-1,3,5-triyltripyrimidine]
melting point: 126 to 128 °C

SMILES: c1cnc(C2CC(c3cnccn3)CC(c3cnccn3)C2)cn1 (stereo not drawn) [Compound 2, 2,2′,2″-cyclohexane-1,3,5-triyltripyrazine]
melting point: 122 to 124 °C

Further lines, with some results ahead:

changes in carbohydrate hydroxyl chemical shifts on titration into the sugar [1]: clearly visible | affinity for n-octyl-β-D-galactopyranoside relative to the β-D-glucopyranoside ([3]; UV-Vis titration): roughly half | Ka in chloroform ([3]; n-octyl α-D-galacto pyranoside): 17,600 ± 100 M^−1 | Ka in methanol ([3]; n-octyl α-D-galacto pyranoside): 9,200 ± 1,100 M^−1 | Ka in chloroform ([3]; n-octyl α-D-gluco pyranoside): 183,000±4,200 M^−1 | Ka in methanol ([3]; n-octyl α-D-gluco pyranoside): 52,000 ± 2,700 M^−1 | Ka in chloroform ([3]; n-octyl α-D-manno pyranoside): 6,700 ± 700 M^−1 | Ka in methanol ([3]; n-octyl α-D-manno pyranoside): >1,200 M^−1 | Ka in chloroform [3, 7]: 9,800 ± 100 M^−1 | Ka in methanol [3, 7]: 7,200 ± 1,700 M^−1 | Ka in chloroform ([3]; n-octyl β-D-gluco pyranoside): 25,000 ± 600 M^−1 | Ka in methanol ([3]; n-octyl β-D-gluco pyranoside): 11,100 ± 600 M^−1 | Ka in methanol ([3]; n-octyl β-D-manno pyranoside): (not saturable)
SMILES: N#Cc1ccnc(C2CC(c3cc(C#N)ccn3)CC(c3cc(C#N)ccn3)C2)c1 (stereo not drawn) [Compound 12, 2,2′,2″-cyclohexane-1,3,5-triyltri(4-cyanopyridinyl)]
Ka in chloroform [2]: No binding; also recorded: (no binding) | Ka in chloroform ([3]; n-octyl β-D-manno pyranoside): did not reach saturation up to the limit of the titration; also recorded: (not saturable)

Ka in chloroform ([3]; n-octyl α-D-gluco pyranoside): no affinity
SMILES: N#Cc1ccnc(C2CC(c3cc(C#N)ccn3)CC(c3cnccc3C#N)C2)c1 (stereo not drawn) [Compound 14, 2,2′,3′-cyclohexane-1,3,5-triyltri(4-cyanopyridinyl)]

Ka (measured affinity, NMR titration) [6]: 91 M⁻¹
SMILES: Cc1cccc(NC(=O)[C@H]2C[C@@H](C(=O)Nc3cccc(C)n3)C[C@@H](C(=O)Nc3cccc(C)n3)C2)n1 [Compound 11, cis-cyclohexane-1,3,5-tricarboxylic acid tris-[(6-methyl-pyridin-2-yl)-amide]]
